Laboratory results as given in patent US20160251403A1, “PEPTIDE COMBINATIONS AND USES THEREOF IN TREATING DUST MITE ALLERGY” (ALK-ABELLO A/S, priority 2013, published 2016).
No end group written: not given here.

How the values were obtained:
DRB1_1302 = DRB1_1302 (Homo sapiens, UniProt P01903+P01911, A100E/A169T/K41T/L162R/M171V/P40S/Q125H/Q178H/Q39Y/Q99D/R42S/S66N/T262R/V115G/W38E/Y61H); experiment: Competitive MHC class II binding assay, DRB1_1302;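 also: purified HLA class II protein incubated two to four days with a radiolabeled reference binder and test peptide at six concentrations over a 100,000-fold range, complex-bound radioactivity counted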
DRB1_0901 = DRB1_0901 (Homo sapiens, UniProt P01903+P01911, A100R/A103E/D57H/D86V/F55Y/F60I/F76Y/I96F/K127E/L162R/M171V/P40D/Q125H/Q99R/R33Q/R42F/S133A/S66N/T210M/V115G/W38K/Y107V/Y59G/Y89S); experiment: Competitive MHC class II binding assay, DRB1_0901;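 also: displacement of a radiolabeled probe peptide from purified HLA class II protein, bound counts read after two to four days incubation, six concentrations spanning 100,000-fold, unlabeled probe as reference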
DQA10301-DQB10302 = DQA10301-DQB10302 (Homo sapiens, UniProt P01909+P01920, A209T/A45G/C70Q/D89A/DUP78-78/E183D/E77G/F237L/G63E/H199R/I129T/K197E/L178F/L74F/L98V/Q57E/Q76R/S185I/S97I/T217I/T49S/V73L/Y58L); experiment: Competitive MHC class II binding assay, DQA10301-DQB10302
DPA10103-DPB10402 = target: T1, DPA10103-DPB10402 (Homo sapiens, UniProt P04440+P20036, A65V/A84D/A85E/L207M); experiment: Competitive MHC class II binding assay, DPA10103-DPB10402
T1 sequence (P20036 29-260): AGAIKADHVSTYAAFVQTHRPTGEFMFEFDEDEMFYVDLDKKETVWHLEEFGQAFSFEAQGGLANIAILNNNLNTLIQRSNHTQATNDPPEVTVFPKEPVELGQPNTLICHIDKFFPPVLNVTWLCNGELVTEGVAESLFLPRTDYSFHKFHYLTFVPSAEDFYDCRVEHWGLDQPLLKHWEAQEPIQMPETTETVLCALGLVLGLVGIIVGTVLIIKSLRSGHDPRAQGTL
T1 sequence (P04440 30-258 A65V/A84D/A85E): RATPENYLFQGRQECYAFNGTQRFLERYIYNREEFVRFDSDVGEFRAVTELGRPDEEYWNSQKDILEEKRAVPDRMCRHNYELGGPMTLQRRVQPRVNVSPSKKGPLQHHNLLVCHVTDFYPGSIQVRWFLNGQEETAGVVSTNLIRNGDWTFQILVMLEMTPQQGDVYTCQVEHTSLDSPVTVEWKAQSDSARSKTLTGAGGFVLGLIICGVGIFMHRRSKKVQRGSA

DPA10103-DPB10301 = target: T2, DPA10103-DPB10301 (Homo sapiens, UniProt P04440+P20036, A65V/A84D/A85E/E86D/F38Y/G113D/G114E/G40L/I94L/L37V/M105V/M116V/P115A/R125K/T199I); experiment: Competitive MHC class II binding assay, DPA10103-DPB10301
T2 sequence (P20036 29-260): T1 sequence (P20036 29-260)
T2 sequence (P04440 30-258 L37V/F38Y/G40L/A65V/A84D/A85E/E86D/I94L/M105V/G113D/G114E/P115A/M116V/R125K/T199I/V234M): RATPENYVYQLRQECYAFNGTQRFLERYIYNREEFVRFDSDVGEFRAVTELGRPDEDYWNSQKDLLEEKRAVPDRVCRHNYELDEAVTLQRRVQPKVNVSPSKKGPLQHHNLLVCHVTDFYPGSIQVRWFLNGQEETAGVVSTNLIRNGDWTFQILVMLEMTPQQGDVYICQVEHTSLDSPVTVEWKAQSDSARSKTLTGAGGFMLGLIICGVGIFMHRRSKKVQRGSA

DQA10501-DQB10301 = DQA10501-DQB10301 (Homo sapiens, UniProt P01909+P01920); experiment: Competitive MHC class II binding assay, DQA10501-DQB10301
DQA10501-DQB10201 = DQA10501-DQB10201 (Homo sapiens, UniProt P01909+P01920, A45G/A70V/D89A/E106A/E77G/E98D/H199R/L107V/N214S/P84L/P87L/T103K/T109R/T172A/T60S/V78E/V99I/Y58L/Y62S/Y69I/Y79F); experiment: Competitive MHC class II binding assay, DQA10501-DQB10201
[1] = Solubility of peptides in aqueous solutions at different pH (visual inspection, OD, HPLC); format: physicochemical
Method in brief: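 Peptides at about 0.25 mM or 1 mM final in water, pH 2 HCl, or pH 5, 7 or 9 buffers with 140 mM NaCl, optionally with about 20% DMSO. Turbidity and particles checked visually before and after centrifugation and by OD. RP-HPLC peak height or area was compared with peptide dissolved in acetonitrile or DMSO.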

DRB3_0101 = DRB3_0101 (Homo sapiens, UniProt P01903+P79483); experiment: Competitive MHC class II binding assay, DRB3_0101
DRB1_1501 = DRB1_1501 (Homo sapiens, UniProt P01903+P01911); experiment: Competitive MHC class II binding assay, DRB1_1501

Row | Compound | IC50 (DRB1_1302) [nM] | IC50 (DRB1_0901) [nM] | IC50 (DQA10301-DQB10302) [nM] | IC50 (DPA10103-DPB10402) [nM] | IC50 (DPA10103-DPB10301) [nM] | IC50 (DQA10501-DQB10301) [nM] | IC50 (DQA10501-DQB10201) [nM] | Solubility at pH 7 (visual inspection) [1] | IC50 (DRB3_0101) [nM] | IC50 (DRB1_1501) [nM] | Solubility at pH 7 ([1]; Table 11a, evaluated by visual inspection) | binding to HLA Class II allele DRB1_1302 (DRB1_1302; as shown in Table 16a) | binding to HLA Class II allele DRB3_0101 (DRB3_0101; as shown in Table 16a) | binding to HLA Class II allele DQA10501-DQB10201 (DQA10501-DQB10201; as shown in Table 16a)
1 | DNGYGYFAANIDLMMIEE [pep-010] | < 1000 | < 1000 | < 1000 | < 1000 | – | < 1000 | < 1000 | – | < 1000 | < 1000 | – | binds to at least the same alleles as peptide 041 | binds to at least the same alleles as peptide 041 | binds to at least the same alleles as peptide 041
2 | GSGSSWAFSGVAATESAYLA [pep-044] | < 1000 | < 1000 | < 1000 | < 1000 | < 1000 | < 1000 | < 1000 | – | – | < 1000 | – | – | – | –
3 | HAVNIVGYSNAQGVDYWIVR [pep-058] | < 1000 | < 1000 | – | – | < 1000 | < 1000 | < 1000 | Slight turbid | < 1000 | < 1000 | – | – | – | –
4 | LVGDNGVLASAIATHAKIRD [pep-110] | < 1000 | < 1000 | – | – | – | < 1000 | – | – | < 1000 | – | – | – | – | –

Second part, led by results:

Row | IC50 (DRB1_1302) [nM] | IC50 (DRB1_0901) [nM] | IC50 (DQA10301-DQB10302) [nM] | IC50 (DPA10103-DPB10402) [nM] | IC50 (DPA10103-DPB10301) [nM] | IC50 (DQA10501-DQB10301) [nM] | IC50 (DQA10501-DQB10201) [nM] | Solubility at pH 7 (visual inspection) [1] | IC50 (DRB3_0101) [nM] | IC50 (DRB1_1501) [nM] | Solubility at pH 7 ([1]; Table 11a, evaluated by visual inspection) | Compound | binding to HLA Class II allele DRB1_1302 (DRB1_1302; as shown in Table 16a) | binding to HLA Class II allele DRB3_0101 (DRB3_0101; as shown in Table 16a) | binding to HLA Class II allele DQA10501-DQB10201 (DQA10501-DQB10201; as shown in Table 16a)
5 | < 1000 | < 1000 | < 1000 | < 1000 | < 1000 | < 1000 | < 1000 | Slight turbid | – | – | – | CC[C@H](C)[C@H](NC(=O)CNC(=O)[C@@H](NC(=O)[C@@H](NC(=O)[C@@H](NC(=O)[C@H](C)NC(=O)[C@@H](NC(=O)[C@H](C)NC(=O)[C@H](CO)NC(=O)[C@H](Cc1c[nH]cn1)NC(=O)[C@@H](NC(=O)[C@H](CCC(N)=O)NC(=O)[C@H](C)NC(=O)[C@H](CC(C)C)NC(=O)[C@H](C)NC(=O)[C@H](CCC(=O)O)NC(=O)[C@@H](N)CCCNC(=N)N)[C@@H](C)O)[C@@H](C)CC)C(C)C)[C@@H](C)CC)[C@@H](C)CC)C(=O)N[C@@H](CCCCN)C(=O)N[C@@H](CC(=O)O)C(=O)N[C@@H](CC(C)C)C(=O)N[C@@H](CC(=O)O)C(=O)N[C@@H](C)C(=O)O [pep-130] | – | – | –
6 | < 1000 | < 1000 | – | – | < 1000 | – | – | – | – | – | Clear | LVKGQQYDIKYTWNVPKIAPK [pep-131] | – | – | –
